Measurements taken from US8580921B2, “Protein nanorings” (University of Minnesota, priority 2005, dated 2013).

Tests used:
Daudi cells = conditions: 2 hr incubation; cited from earlier work
[1] = given orally to mice; cited from earlier work
[2] = humans; cited from earlier work
[3] = tested on: 39 human tumor cell lines; conditions: cited from earlier work
[4] = SEC of isolated DHFR^2 oligomers after storage or dilution; assay type: physicochemical; conditions: oligomers with MTX^2-C9 isolated by SEC (dimers, tetramers, octamers), stored 2 weeks at 4° C.
Description: SEC was employed to initially assess the degree of DHFR^2 induced oligomerization by MTX^2. The purified DHFR^2-13 (10 uM) and MTX^2-C9 were mixed at a range of stoichiometries, allowed to equilibrate for one hour, and assayed by size exclusion chromatography on a Superdex G75 Column (Amersham).
Assemblies of this size, however, approach or exceed the exclusion limit of the G75 matrix, preventing definitive assignment of the molecular weight and oligomer number. The dimeric fraction increased at the expense of the larger oligomers with time, becoming the dominant species. […] For DHFR^2-3, tetramers were the dominant species, further increasing with time. […] In addition, in contrast to the expected result from linear oligomers, no observable change in composition was observed when oligomer samples were dilution to a concentration of 5 nM.

| Molecule | IC50 (Daudi cells) [nM] | oligomer composition on re-injection after storage [4] | other results |
| --- | --- | --- | --- |
| COc1cccc2c1C(=O)c1c(O)c3c(c(O)c1C2=O)C[C@@](O)(C(=O)CO)C[C@@H]3O[C@H]1C[C@H](N)[C@H](O)[C@H](C)O1 [doxorubicin] | 225 ± 35 | – | – |
| COc1cc(Cc2cnc(N)nc2N)cc(OC)c1OC [trimethoprim] | – | – | LD50 [1]: greater than 3 grams/kg; half-life [2]: 11 h |
| auristatin | 4.6 ± 4.3 | – | IC50 [3]: 3.2 ± 0.51 nM |
| DHFR^2-3: E. coli DHFR-DHFR fusion protein with 3 amino acid linker (GGT) (protein, left off: small tags and cut ends) MISLIAALAVDRVIGMENAMPWNLPADLAWFKRNTLNKPVIMGRHTWESIGRPLPGRKNIILSSQPGTDDRVTWVKSVDEAIAACGDVPEIMVIGGGRVYEQFLPKAQKLYLTHIDAEVEGDTHFPDYEPDDWESVFSEFHDADAQNSHSYCFEILERRGGTMISLIAALAVDRVIGMENAMPWNLPADLAWFKRNTLNKPVIMGRHTWESIGRPLPGRKNIILSSQPGTDDRVTWVKSVDEAIAACGDVPEIMVIGGGRVYEQFLPKAQKLYLTHIDAEVEGDTHFPDYEPDDWESVFSEFHDADAQNSHSYCFEILERR | – | no change in the oligomer composition | – |
| DHFR^2-13: two wild-type E. coli DHFR modules separated by a 13 (GLG5LVPRGT) amino acid linker (protein, left off: small tags and cut ends) MISLIAALAVDRVIGMENAMPWNLPADLAWFKRNTLNKPVIMGRHTWESIGRPLPGRKNIILSSQPGTDDRVTWVKSVDEAIAACGDVPEIMVIGGGRVYEQFLPKAQKLYLTHIDAEVEGDTHFPDYEPDDWESVFSEFHDADAQNSHSYCFEILERRGLGGGGGLVPRGTMISLIAALAVDRVIGMENAMPWNLPADLAWFKRNTLNKPVIMGRHTWESIGRPLPGRKNIILSSQPGTDDRVTWVKSVDEAIAACGDVPEIMVIGGGRVYEQFLPKAQKLYLTHIDAEVEGDTHFPDYEPDDWESVFSEFHDADAQNSHSYCFEILERR | – | no change in the oligomer composition | – |
| DHFR^2-1G: E. coli DHFR-DHFR fusion protein with 1 (G) amino acid linker (protein, left off: small tags and cut ends, E. coli DHFR-DHFR fusion protein with 1 (G) amino acid linker) MISLIAALAVDRVIGMENAMPWNLPADLAWFKRNTLNKPVIMGRHTWESIGRPLPGRKNIILSSQPGTDDRVTWVKSVDEAIAACGDVPEIMVIGGGRVYEQFLPKAQKLYLTHIDAEVEGDTHFPDYEPDDWESVFSEFHDADAQNSHSYCFEILERRGMISLIAALAVDRVIGMENAMPWNLPADLAWFKRNTLNKPVIMGRHTWESIGRPLPGRKNIILSSQPGTDDRVTWVKSVDEAIAACGDVPEIMVIGGGRVYEQFLPKAQKLYLTHIDAEVEGDTHFPDYEPDDWESVFSEFHDADAQNSHSYCFEILERR | – | no change in the oligomer composition | – |
